Data from US20110294741A1, “USE OF COMPOUNDS IN THE TREATMENT OF TAU-INDUCED CYTOTOXICITIES” (Bioalvo-Servicos, Investigacao e Desenvolvimento em …, priority 2008, published 2011).

Columns and labels:
[1] = Differential quenching, depth of location in the membrane; assay type: physicochemical; details: phenolic ring, differential quenching with Brownian dynamics simulation
Text: The x-axis indicates the distance to the bilayer center, being the monolayer thickness 20 Å and y-axis represents the values of the probability density function. Traces (4) and (5) relate to the location of the quenching agents used in the study.
Differential quenching experiments were used to estimate the depth of location of the phenolic ring of the peptides, based on a Brownian dynamics simulation (Fernandes M. X., García de la Torre J., Castanho M. A. 2002. Joint determination by Brownian dynamics and fluorescence quenching of the in-depth location profile of biomolecules in membranes. Anal. Biochem. 307: 1-12.) This methodology allows to determine where the molecules are preferably inserted along the lipid bilayer. The peptides with the amide group show a greater depth of insertion, 4 Å—KTP-NH2, from the lipid/water interface. This is in agreement with KTP-NH2 having a higher affinity for lipids, as desired.

[2] = test system: Tau P301L ([…] I P301L cells); experiment: Yeast platform DISAGGREGATOR I P301L, ER stress GFP reporter (target induced); assay type: cell-based; details: for decrease of the fluorescent signal: first assay (FIG. 9); for decrease of the stress: second assay (FIG. 11)
Method: Cells were grown in 200 microlitre minimum medium supplemented with 20 g/L galactose, at 30° C., with agitation at 600 rpm;
KTP-NH2 was further tested on a general inducer of the same pathological mechanism to assess its specificity for tau and compared with two control KTP derivatives which were tested on the same platform.
The Endoplasmic Reticulum (ER) fulfils multiple cellular functions, the main one being the proper folding of proteins destined for secretion or display on the cell surface. Many disturbances cause accumulation of unfolded proteins in the ER, triggering an evolutionarily conserved response, termed the unfolded protein response (UPR) or ER stress. The initial intent of the UPR is to adapt to the changing environment, and re-establish normal ER function.
In parallel, the yeast platform DISAGGREGATOR I P301L comprises the same ER stress element operably linked to the same GFP reporter element and additionally expresses the exogenous protein TAU P301L which induces ER stress.
Using these two platforms in parallel, it is possible to identify compounds that reduce specifically the stress induced by the TAU P301L protein, and other compounds that are simply general ER stress reducers.
DISAGGREGATOR I P301L cells were grown in 200 μl medium containing KTP-NH2 or control compounds (referred to as control 1 and control 2) at a concentration of 10 μM and 100 μM. No effect on the fluorescence could be detected for the control compounds, meaning that the two compounds are inefficient to reduce the stress triggered by the TAU P301L protein (FIGS. 7 and 8).
DISAGGREGATOR I P301L cells were grown in 200 μl medium containing the KTP-NH2 at a concentration of 10 μM and 100 μM. DISAGGREGATOR I cells were grown in the same condition but subjected to an addition of 1 μg/mL of tunicamycin in order to induce ER stress chemically.
The inventors created a yeast-based screening application for the detection of compounds that act as modulators of the toxicity (neurodegeneration) for neurons (not pain) induced by the expression of tau P301L, a pathological isoform of tau protein. This yeast-based application is designated as DISAGGREGATOR I P301L and provides a valuable tool for the high throughput screening of tau modulators. It is a model-based system where the cellular environment produced upon P301L expression is recapitulated and cell toxicity is measured and quantified. Compounds that have the potential to modulate pathological pathways activated by the expression of P301L are detected through a reduction in the cytotoxic readout. Tau protein is expressed in central nerve cells and, consequently, tauopathies are diseases of the central nervous system. This implies that a therapeutic compound for tauopathies must be able to access the central nervous system by penetrating the blood-brain barrier. We tested KTP-NH2 in the DISAGGREGATOR P301L system. Results were very impressive for KTP-NH2 to be used as a drug for tau-associated pathologies. Therefore, after obtaining the proof of concept confirmation of KTP-NH2 potential as a tau modulator, we developed a series of derivatives with a higher plasma-stability. The present invention protects the use of KTP-NH2 and its derivatives in the treatment of tau-induced cytotoxicities.

[3] = Metabolic stability in human liver microsomal preparation; assay type: in vitro ADME; details: human liver microsomes, 1-hour incubation
Text: Many compounds can never become a drug because they are rapidly metabolized in the liver. It is important to confirm that metabolic stability is adequate to the desired distribution of compound throughout the body.

CYP3A4 = CYP3A4 (Homo sapiens, UniProt P08684); experiment: CYP inhibition; assay type: in vitro ADME; details: probe substrates midazolan and testosterone
Sequence of CYP3A4 (P08684 whole entry): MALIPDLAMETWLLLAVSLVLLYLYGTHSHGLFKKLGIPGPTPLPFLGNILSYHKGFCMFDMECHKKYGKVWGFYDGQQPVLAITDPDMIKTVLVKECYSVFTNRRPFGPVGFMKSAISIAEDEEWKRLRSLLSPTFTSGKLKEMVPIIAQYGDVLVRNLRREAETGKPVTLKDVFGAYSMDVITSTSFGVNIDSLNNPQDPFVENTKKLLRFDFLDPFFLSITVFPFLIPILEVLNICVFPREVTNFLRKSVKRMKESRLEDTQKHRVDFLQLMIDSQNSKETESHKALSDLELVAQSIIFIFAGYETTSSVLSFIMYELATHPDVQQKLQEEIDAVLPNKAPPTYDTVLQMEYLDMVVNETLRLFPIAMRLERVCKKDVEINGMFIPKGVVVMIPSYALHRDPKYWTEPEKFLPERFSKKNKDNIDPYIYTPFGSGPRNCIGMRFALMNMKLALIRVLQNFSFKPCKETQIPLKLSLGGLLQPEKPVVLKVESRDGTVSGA
Text: CYP3A4 is one of the most important enzymes involved in the metabolism of xenobiotics in the body, promoting the oxidation of the largest range of substrates of all the CYPs and is present in the largest quantity of all the CYPs in the liver.

[4] = Plasma serum stability of KTP-NH2 analogues; assay type: in vitro ADME; details: Human Serum, test concentration 400 uM, 1-hour incubation
Method: In order to increase the potential of KTP-NH2 as a drug for systemic administration, derivatives with improved plasma stability were generated, and tested, including different isomers of KTP-NH2 and methylated versions of KTP-NH2 isomers: • L-Tyrosyl-D-Arginine-NH2 • D-Tyrosyl-D-Arginine-NH2 • D-Tyrosyl-L-Arginine-NH2 • Methyl-L-Tyrosyl-L-Arginine-NH2 • Methyl-L-Tyrosyl-D-Arginine-NH2
These analogues were tested for plasma serum stability, in comparison with KTP-NH2.

SMILES: N=C(N)NCCCC(NC(=O)C(N)Cc1ccc(O)cc1)C(N)=O [KTP-NH2, L-Tyr-L-Arg-NH2]
- depth of insertion from the lipid/water interface [1]: 4 Å
- effect on the fluorescence (ER stress triggered by TAU P301L) ([2]; 10 μM and 100 μM): decreased the fluorescence signal
- decrease of the fluorescent signal ([2]; 10 μM): 40%
- decrease of the stress ([2]; 10 μM): 50%
- residual ER stress signal, of the maximum level without compound ([2]; 100 μM, average of two experiments (FIG. 13)): ~40%
- decrease of the fluorescent signal ([2]; 100 μM): 65%
- decrease of the stress ([2]; 100 μM): 50%
- compound remained after incubation with microsomal preparation [3]: 93%
- CYP3A4 inhibition (CYP3A4): not to inhibit
- Mean Parent Remaining (%) [4]: 14.00%
